In patent publication US9493455B2, “Azaindole derivatives as inhibitors of protein kinases” (ORIBASE PHARMA, priority 2012, dated 2016):

What was measured:
[1] = target: T1, BRAF (Homo sapiens, UniProt P15056); test: In vitro kinase assay (Z′-LYTE); format: biochemical; conditions: compound 100 nM; ATP 100 μM; read-out: % of inhibition of the kinase compared to the control
T1 construct: purchased Invitrogen
Experimental: (§1) The inhibitory activity of the compounds on several kinases including BRAF, EGFR (ErbB1), EGFR (ErbB1) T790M L858R, FGFR2, KDR (VEGFR2), PDGFRA (PDGFR alpha), SRC and other was evaluated by Invitrogen using the Z′-LYTE® technology. Briefly, the Z′-LYTE® biochemical assay employs a fluorescence-based, coupled-enzyme format and is based on the differential sensitivity of phosphorylated and non-phosphorylated peptides to proteolytic cleavage. The peptide substrate is labeled with two fluorophores—one at each end—that make up a FRET pair. A ratiometric method, which calculates the ratio (the Emission Ratio) of donor emission to acceptor emission after excitation of the donor fluorophore at 400 nm, is used to quantitate reaction progress.
(§2) The compounds are screened in 1% DMSO (final) in the well. For 10 point titrations, 3-fold serial dilutions are conducted from the starting concentration. All Peptide/Kinase Mixtures are diluted to a 2× working concentration in the appropriate Kinase Buffer. All ATP Solutions are diluted to a 4× working concentration in Kinase Buffer (50 mM HEPES pH 7.5, 0.01% BRIJ-35, 10 mM MgCl2, 1 mM EGTA). ATP Km apparent is previously determined using a Z′-LYTE® assay.
(§3) Each compound was incubated at a concentration of 100 nM (excepted to test the activity against ABL and ABL T315I for which the compounds were incubated at a concentration of 10 μM) and the tables B1 to B12 summarize the results obtained showing the inhibitory power of a compound. The inhibitory activity of OR0512 was also investigated using the same assays and the kinases for which activity was inhibited at more than 50% at the concentration of 100 nM of OR0512 are listed in the table B13.

[2] = target: T2, EGFR (ErbB1) (Homo sapiens, UniProt P00533); test: In vitro kinase assay (Z′-LYTE); format: biochemical; conditions: read-out: % of inhibition of the kinase compared to the control
T2 construct: purchased Invitrogen
Experimental: as §1, §2, §3

[3] = target: T3, FGFR2 (Homo sapiens, UniProt P21802); test: In vitro kinase assay (Z′-LYTE); format: biochemical; conditions: read-out: % of inhibition of the kinase compared to the control
T3 construct: purchased Invitrogen
Experimental: as §1, §2, §3

[4] = target: T4, KDR (VEGFR2) (Homo sapiens, UniProt P35968); test: In vitro kinase assay (Z′-LYTE); format: biochemical; conditions: read-out: % of inhibition of the kinase compared to the control
T4 construct: purchased Invitrogen
Experimental: as §1, §2, §3

[5] = target: T5, PDGFRA (PDGFR alpha) (Homo sapiens, UniProt P16234); test: In vitro kinase assay (Z′-LYTE); format: biochemical; conditions: read-out: % of inhibition of the kinase compared to the control
T5 construct: purchased Invitrogen
Experimental: as §1, §2, §3

[6] = tested on: HUVEC; test: In vitro cell proliferation assay (MTT); format: cell-based; conditions: Homo sapiens, 72 h
Experimental: (§4) Cancer cell lines (5×10^3 cells per well) or HUVEC (1×10^4 cells per well) or HRMEC (1×10^4 cells per well) were distributed in 96-well plates and incubating in duplicate with escalating concentrations (10 nM to 3 μM) of compounds for 72 hr. Cell proliferation was measured using MTT (3 [4,5-dimethylthiazol-2-yl]-2,5-diphenyltetrazolium bromide).

[7] = tested on: HepG2; test: In vitro cell proliferation assay (MTT); format: cell-based; conditions: Homo sapiens, HepG2, 72 h
Experimental: as §4

[8] = target: T6, ABL (Homo sapiens, UniProt P00519); test: In vitro kinase assay (Z′-LYTE); format: biochemical; conditions: read-out: % of inhibition of the kinase compared to the control
T6 construct: purchased Invitrogen
Experimental: as §1, §2, §3

[9] = target: T7, ABL T315I (Homo sapiens, UniProt P00519, T315I); test: In vitro kinase assay (Z′-LYTE); format: biochemical; conditions: read-out: % of inhibition of the kinase compared to the control
T7 construct: purchased Invitrogen
Experimental: as §1, §2, §3

[10] = target: T8, EGFR (ErbB1) T790M L858R (Homo sapiens, UniProt P00533, L858R/T790M); test: In vitro kinase assay (Z′-LYTE); format: biochemical; conditions: read-out: % of inhibition of the kinase compared to the control
T8 construct: purchased Invitrogen
Experimental: as §1, §2, §3

[11] = target: T9, FGFR1 (Homo sapiens, UniProt P11362); test: In vitro kinase assay (Z′-LYTE); format: biochemical; conditions: read-out: % of inhibition of the kinase compared to the control
T9 construct: purchased Invitrogen
Experimental: as §1, §2, §3

[12] = target: T10, PDGFRB (Homo sapiens, UniProt P09619); test: In vitro kinase assay (Z′-LYTE); format: biochemical; conditions: read-out: % of inhibition of the kinase compared to the control
T10 construct: purchased Invitrogen
Experimental: as §1, §2, §3

[13] = target: T11, SRC (Homo sapiens, UniProt P12931); test: In vitro kinase assay (Z′-LYTE); format: biochemical; conditions: read-out: % of inhibition of the kinase compared to the control
T11 construct: purchased Invitrogen
Experimental: as §1, §2, §3

[14] = target: T12, VEGFR1 (Homo sapiens, UniProt P17948); test: In vitro kinase assay (Z′-LYTE); format: biochemical; conditions: read-out: % of inhibition of the kinase compared to the control
T12 construct: purchased Invitrogen
Experimental: as §1, §2, §3

[15] = tested on: BxPC-3; test: In vitro cell proliferation assay (MTT); format: cell-based; conditions: Homo sapiens, BXPC-3, 72 h
Experimental: as §4

[16] = tested on: A549; test: In vitro cell proliferation assay (MTT); format: cell-based; conditions: Homo sapiens, A549, 72 h
Experimental: as §4

[17] = tested on: H1975; test: In vitro cell proliferation assay (MTT); format: cell-based; conditions: Homo sapiens, NCI-H1975, 72 h
Experimental: as §4

[18] = tested on: HT29; test: In vitro cell proliferation assay (MTT); format: cell-based; conditions: Homo sapiens, HT-29, 72 h
Experimental: as §4

T3 sequence (P21802 22-821): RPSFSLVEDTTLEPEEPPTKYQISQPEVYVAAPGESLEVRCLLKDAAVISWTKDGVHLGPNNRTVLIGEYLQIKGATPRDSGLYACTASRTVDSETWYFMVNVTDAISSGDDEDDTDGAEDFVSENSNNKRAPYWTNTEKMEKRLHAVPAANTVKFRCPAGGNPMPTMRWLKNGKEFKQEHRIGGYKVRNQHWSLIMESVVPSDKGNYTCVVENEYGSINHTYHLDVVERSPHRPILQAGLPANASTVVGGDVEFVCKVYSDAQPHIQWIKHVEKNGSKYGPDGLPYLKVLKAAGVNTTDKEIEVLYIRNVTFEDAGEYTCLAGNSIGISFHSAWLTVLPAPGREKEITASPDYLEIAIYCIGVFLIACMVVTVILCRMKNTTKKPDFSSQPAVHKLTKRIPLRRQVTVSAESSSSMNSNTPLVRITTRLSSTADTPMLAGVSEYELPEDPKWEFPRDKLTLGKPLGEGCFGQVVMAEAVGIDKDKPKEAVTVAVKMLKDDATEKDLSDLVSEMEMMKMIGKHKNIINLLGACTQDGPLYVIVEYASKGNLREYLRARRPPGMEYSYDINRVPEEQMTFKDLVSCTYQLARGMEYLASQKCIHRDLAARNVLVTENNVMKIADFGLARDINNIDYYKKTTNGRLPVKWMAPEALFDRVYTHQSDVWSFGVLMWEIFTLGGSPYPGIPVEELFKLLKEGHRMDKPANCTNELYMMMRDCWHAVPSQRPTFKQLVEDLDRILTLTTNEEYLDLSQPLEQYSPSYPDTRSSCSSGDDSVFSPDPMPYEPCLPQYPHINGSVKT
T2 sequence (P00533 25-1210): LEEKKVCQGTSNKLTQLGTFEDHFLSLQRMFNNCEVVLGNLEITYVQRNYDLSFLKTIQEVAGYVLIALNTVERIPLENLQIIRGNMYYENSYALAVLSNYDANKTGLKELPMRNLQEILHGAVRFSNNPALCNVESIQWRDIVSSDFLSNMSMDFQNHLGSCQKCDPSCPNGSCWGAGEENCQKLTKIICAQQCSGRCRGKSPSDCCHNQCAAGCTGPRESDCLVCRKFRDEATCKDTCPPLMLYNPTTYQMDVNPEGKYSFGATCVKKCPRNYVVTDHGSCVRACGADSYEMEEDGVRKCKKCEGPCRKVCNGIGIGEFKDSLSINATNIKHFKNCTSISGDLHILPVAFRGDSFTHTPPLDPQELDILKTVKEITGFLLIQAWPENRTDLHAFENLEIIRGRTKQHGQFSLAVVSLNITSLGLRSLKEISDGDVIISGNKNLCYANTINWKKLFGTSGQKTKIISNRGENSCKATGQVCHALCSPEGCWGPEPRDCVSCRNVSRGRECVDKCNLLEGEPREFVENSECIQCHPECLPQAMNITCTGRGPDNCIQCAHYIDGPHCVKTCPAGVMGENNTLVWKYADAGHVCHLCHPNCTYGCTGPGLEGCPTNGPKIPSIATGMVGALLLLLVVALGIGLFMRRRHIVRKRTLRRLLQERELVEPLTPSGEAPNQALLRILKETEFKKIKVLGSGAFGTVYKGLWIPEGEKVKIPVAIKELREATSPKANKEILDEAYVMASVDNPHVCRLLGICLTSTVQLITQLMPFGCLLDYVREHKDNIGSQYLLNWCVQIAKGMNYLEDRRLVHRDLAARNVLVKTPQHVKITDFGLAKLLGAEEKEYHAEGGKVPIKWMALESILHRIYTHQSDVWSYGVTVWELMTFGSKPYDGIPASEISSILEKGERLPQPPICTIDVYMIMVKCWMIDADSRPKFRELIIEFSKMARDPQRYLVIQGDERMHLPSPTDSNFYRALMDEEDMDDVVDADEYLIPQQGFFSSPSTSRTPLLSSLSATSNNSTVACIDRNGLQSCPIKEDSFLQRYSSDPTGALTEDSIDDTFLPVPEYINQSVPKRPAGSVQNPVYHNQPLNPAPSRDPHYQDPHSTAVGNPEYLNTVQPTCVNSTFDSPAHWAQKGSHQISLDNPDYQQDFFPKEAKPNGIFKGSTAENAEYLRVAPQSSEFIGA
T4 sequence (P35968 20-1356): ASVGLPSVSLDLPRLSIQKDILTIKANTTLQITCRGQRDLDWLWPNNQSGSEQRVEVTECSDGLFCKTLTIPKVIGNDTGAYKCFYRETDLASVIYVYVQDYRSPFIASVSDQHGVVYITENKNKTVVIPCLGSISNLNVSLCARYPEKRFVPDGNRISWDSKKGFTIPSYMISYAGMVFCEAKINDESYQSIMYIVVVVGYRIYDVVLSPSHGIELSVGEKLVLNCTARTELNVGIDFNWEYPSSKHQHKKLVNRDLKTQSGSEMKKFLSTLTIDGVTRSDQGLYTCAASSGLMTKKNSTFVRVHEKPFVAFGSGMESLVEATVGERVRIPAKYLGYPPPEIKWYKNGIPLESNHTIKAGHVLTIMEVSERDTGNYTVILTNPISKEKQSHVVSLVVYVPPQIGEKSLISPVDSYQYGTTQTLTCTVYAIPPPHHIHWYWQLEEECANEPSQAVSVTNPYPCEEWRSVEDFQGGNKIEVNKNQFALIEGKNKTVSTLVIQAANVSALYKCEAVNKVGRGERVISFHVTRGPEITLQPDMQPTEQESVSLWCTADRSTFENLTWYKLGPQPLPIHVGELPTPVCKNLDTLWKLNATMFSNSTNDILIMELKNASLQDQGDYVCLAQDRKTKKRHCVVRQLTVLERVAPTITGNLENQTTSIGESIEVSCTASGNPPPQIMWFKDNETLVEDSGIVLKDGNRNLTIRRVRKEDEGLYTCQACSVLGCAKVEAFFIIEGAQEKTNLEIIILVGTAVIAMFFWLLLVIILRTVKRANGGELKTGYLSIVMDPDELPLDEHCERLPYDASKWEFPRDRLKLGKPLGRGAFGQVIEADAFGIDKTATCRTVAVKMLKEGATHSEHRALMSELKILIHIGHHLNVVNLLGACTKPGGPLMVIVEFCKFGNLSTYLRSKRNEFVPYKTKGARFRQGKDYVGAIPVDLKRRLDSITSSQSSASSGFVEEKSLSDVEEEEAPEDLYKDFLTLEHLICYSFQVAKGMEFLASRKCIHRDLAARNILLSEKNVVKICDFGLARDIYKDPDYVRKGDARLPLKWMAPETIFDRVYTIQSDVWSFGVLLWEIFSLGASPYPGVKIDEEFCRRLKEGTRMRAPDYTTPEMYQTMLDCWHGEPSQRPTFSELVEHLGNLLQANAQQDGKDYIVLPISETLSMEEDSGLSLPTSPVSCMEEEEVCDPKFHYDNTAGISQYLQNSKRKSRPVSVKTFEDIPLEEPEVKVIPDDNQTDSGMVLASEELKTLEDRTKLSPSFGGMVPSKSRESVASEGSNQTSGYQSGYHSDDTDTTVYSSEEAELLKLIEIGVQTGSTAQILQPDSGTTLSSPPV
T8 sequence (P00533 25-1210 T790M/L858R): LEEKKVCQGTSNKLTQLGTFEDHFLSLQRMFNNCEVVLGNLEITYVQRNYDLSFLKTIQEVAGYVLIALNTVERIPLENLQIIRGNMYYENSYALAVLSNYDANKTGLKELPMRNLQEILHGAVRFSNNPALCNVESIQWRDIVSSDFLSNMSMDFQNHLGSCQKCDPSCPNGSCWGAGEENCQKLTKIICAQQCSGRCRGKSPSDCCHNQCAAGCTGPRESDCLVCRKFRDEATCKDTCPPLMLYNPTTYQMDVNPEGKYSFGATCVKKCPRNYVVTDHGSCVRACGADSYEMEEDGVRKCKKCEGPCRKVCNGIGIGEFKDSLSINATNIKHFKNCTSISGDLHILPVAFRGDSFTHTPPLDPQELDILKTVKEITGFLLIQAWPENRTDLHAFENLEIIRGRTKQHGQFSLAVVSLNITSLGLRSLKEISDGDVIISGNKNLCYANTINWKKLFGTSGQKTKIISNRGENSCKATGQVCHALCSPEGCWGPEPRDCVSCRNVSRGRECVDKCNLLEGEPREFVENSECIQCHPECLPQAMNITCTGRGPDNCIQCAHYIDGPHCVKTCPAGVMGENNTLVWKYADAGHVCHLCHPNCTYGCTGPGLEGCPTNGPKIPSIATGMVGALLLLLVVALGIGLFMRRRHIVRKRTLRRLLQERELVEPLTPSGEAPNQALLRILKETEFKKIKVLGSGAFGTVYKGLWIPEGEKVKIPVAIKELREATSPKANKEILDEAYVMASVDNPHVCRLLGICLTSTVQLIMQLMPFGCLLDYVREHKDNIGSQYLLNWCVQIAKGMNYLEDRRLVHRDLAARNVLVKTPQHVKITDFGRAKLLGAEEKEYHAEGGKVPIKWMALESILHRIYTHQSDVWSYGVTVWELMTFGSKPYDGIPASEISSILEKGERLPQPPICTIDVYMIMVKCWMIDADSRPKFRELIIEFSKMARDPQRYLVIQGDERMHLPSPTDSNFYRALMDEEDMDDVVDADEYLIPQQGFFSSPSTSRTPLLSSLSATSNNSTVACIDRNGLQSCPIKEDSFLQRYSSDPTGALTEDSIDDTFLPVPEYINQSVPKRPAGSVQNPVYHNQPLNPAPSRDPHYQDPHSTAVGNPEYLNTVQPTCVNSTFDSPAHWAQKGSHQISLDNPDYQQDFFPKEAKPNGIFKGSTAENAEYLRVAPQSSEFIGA
T11 sequence (P12931 whole entry): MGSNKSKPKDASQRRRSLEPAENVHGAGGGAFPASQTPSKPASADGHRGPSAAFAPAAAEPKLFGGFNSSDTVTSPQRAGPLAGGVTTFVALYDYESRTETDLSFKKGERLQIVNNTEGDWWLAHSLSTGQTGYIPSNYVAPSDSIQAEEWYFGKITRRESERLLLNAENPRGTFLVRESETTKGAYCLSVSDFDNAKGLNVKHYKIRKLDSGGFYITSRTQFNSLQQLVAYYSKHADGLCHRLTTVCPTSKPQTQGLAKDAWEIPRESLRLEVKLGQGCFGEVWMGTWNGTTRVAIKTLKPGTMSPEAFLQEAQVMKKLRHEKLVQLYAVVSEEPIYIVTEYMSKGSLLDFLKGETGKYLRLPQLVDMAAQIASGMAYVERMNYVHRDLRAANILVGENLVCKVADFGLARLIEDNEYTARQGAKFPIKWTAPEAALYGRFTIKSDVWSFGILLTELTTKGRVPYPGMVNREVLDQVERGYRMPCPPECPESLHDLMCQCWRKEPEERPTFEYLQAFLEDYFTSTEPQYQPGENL

Row | inhibition at 0.1 µM [1] | inhibition at 0.1 µM [2] | inhibition at 0.1 µM [3] | inhibition at 0.1 µM [4] | inhibition at 0.1 µM [5] | EC50 [7] | inhibition at 10 µM [8] | inhibition at 10 µM [9] | inhibition at 0.1 µM [10] | inhibition at 0.1 µM [11] | inhibition at 0.1 µM [12] | inhibition at 0.1 µM [13] | inhibition at 0.1 µM [14] | EC50 [15] | EC50 [16] | EC50 [17] | EC50 [18] | SMILES | EC50 [6]
1 | ≥ 50% | < 50% | < 50% | < 50% | ≥ 50% | ≥ 1000 nM |  |  |  |  |  |  |  |  |  |  |  | COC(=O)c1cc2cc(NCc3cc(NC(=O)c4cc[nH]c4)ccc3C)cnc2[nH]1 [OR0975] | ≥ 1000 nM
2 | < 50% | < 50% | < 50% | < 50% | < 50% | ≥ 1000 nM |  |  |  |  |  |  |  |  |  |  |  | COC(=O)c1cc2cc(NC(=O)c3cccc(CNC(=O)c4ccc(CN5CCN(C)CC5)c(C(F)(F)F)c4)c3)cnc2[nH]1 [OR0983] | ≥ 1000 nM
3 | < 50% | < 50% | < 50% | < 50% | < 50% | ≥ 1000 nM |  |  |  |  |  |  |  |  |  |  |  | COC(=O)c1cc2cc(NCc3cccc(C(=O)Nc4cccnc4)c3)cnc2[nH]1 [OR0916] | ≥ 1000 nM
4 | ≥ 50% | ≥ 50% | < 50% | ≥ 50% |  | ≥ 1000 nM |  |  |  |  |  |  |  |  |  |  |  | COC(=O)c1cc2cc(NCc3cc(NC(=O)c4ccc(CN5CCC(N(C)C)C5)c(F)c4)ccc3C)cnc2[nH]1 (stereo not shown) [OR0974] | ≥ 1000 nM

The remaining lines, values behind:

Row | SMILES | inhibition at 0.1 µM [1] | inhibition at 0.1 µM [2] | inhibition at 0.1 µM [3] | inhibition at 0.1 µM [4] | inhibition at 0.1 µM [5] | EC50 [7] | inhibition at 10 µM [8] | inhibition at 10 µM [9] | inhibition at 0.1 µM [10] | inhibition at 0.1 µM [11] | inhibition at 0.1 µM [12] | inhibition at 0.1 µM [13] | inhibition at 0.1 µM [14] | EC50 [15] | EC50 [16] | EC50 [17] | EC50 [18] | EC50 [6]
5 | COC(=O)c1cc2cc(NCc3cc(NC(=O)c4ccc(-c5csc(C)n5)cc4)ccc3C)cnc2[nH]1 [OR0620] | < 50% | ≥ 50% | < 50% | < 50% | ≥ 50% |  | ≥ 50% | < 50% | < 50% | < 50% | < 50% | ≥ 50% | < 50% | ≥ 1000 nM |  |  |  | 
6 | CCCOC(=O)c1cc2cc(NCc3cc(NC(=O)c4ccc(CN5CCN(C)CC5)c(C(F)(F)F)c4)ccc3C)cnc2[nH]1 [OR0697, 5-{2-methyl-5-[4-(4-methyl-piperazin-1-ylmethyl)-3-trifluoromethyl-benzoylamino]-benzylamino}-1H-pyrrolo[2,3-b]pyridine-2-carboxylic acid propyl ester] | < 50% | ≥ 50% | < 50% | < 50% | < 50% | 100 to 1000 nM |  |  | < 50% |  |  | ≥ 50% |  | 100 to 1000 nM | 100 to 1000 nM | ≥ 1000 nM | 100 to 1000 nM | 100 to 1000 nM
7 | COC(=O)c1cc2cc(NCc3cc(NC(=O)c4ccc(CN5CCN(C)CC5)c(C(F)(F)F)c4)ccc3Cl)cnc2[nH]1 [OR0621] | < 50% | < 50% | < 50% | < 50% | < 50% |  | ≥ 50% | ≥ 50% | < 50% | < 50% | < 50% | < 50% | < 50% |  |  |  |  | 
8 | C#Cc1cccc(Nc2ncnc3cc(OCCOC)c(OCCOC)cc23)c1 [Erlotinib, reference compound] |  |  |  |  |  |  |  |  |  |  |  |  |  | ≥ 1000 nM |  | ≥ 1000 nM |  | ≥ 1000 nM
9 | COC(=O)c1cc2cc(NCc3cc(NC(=O)c4ccc(CN5CCN(C)CC5)c(F)c4)ccc3C)cnc2[nH]1 [OR0864] | ≥ 50% | ≥ 50% | ≥ 50% | ≥ 50% |  | ≥ 1000 nM |  |  |  |  |  |  |  |  |  |  |  | 
